Converted amounts (≈) assume the structure as drawn.
Tests used:
[1] = tested on: Streptococcus pneumoniae (ATCC6305); assay: Microtitre plate IC90 determination against non-mycobacterial strains: S. pneumoniae; format: cell-based; settings: 90% inhibitory concentration for bacterial growth, 37° C., resazurin fluorescence; for IC90 SPN 1 6305: 24 hours; for IC90: Streptococcus pneumoniae, ATCC6305, 24 h, read-out: IC90 SPN 1 6305
Method: (§1) The bacteria used in this study were grown overnight in flasks containing 100 ml Mueller-Hinton Broth (Becton Dickinson-cat. no. 275730) in sterile de-ionized water, with shaking, at 37° C. Stocks (0.5 ml/tube) were stored at -70° C. until use. Bacteria titrations were performed in microtiter plates to detect the TCID50, in which the TCID50 represents the dilution that gives rise to bacterial growth in 50% of inoculated cultures. In general, an inoculum level of approximately 100 TCID50 was used for susceptibility testing. […] Therefore resazurin (0.6 mg/ml) was added in a volume of 20 μl to all wells 3 hours after inoculation, and the plates were re-incubated overnight. A change in colour from blue to pink indicated the growth of bacteria.

M. smegmatis ATCC607 = assay: In-vitro anti-bacterial activity against strain M. smegmatis ATCC607; settings: for IC90: Mycolicibacterium smegmatis, ATCC607, 48 h, read-out: IC90 MSM 1 ATCC607, 90% inhibitory concentration for bacterial growth, 37° C., Alamar Blue fluorescence; for IC90 MSM 1 ATCC607: 90% inhibitory concentration for bacterial growth, 48 hours, 37° C., Alamar Blue fluorescence
Method: Flat-bottom, sterile 96-well plastic microtiter plates were filled with 180 μl of sterile deionized water, supplemented with 0.25% BSA. Subsequently, stock solutions (7.8× final test concentration) of compounds were added in 45 μl volumes to a series of duplicate wells in column 2 so as to allow evaluation of their effects on bacterial growth. Serial five-fold dilutions (45 μl in 180 μl) were made directly in the microtiter plates from column 2 to 11 using a customised robot system (Zymark Corp., Hopkinton, Mass.). Pipette tips were changed after every 3 dilutions to minimize pipetting errors with high hydrophobic compounds. Untreated control samples with (column 1) and without (column 12) inoculum were included in each microtiter plate. Approximately 250 CFU per well of bacteria inoculum, in a volume of 100 μl in 2.8× Mueller-Hinton broth medium, was added to the rows A to H, except column 12. The same volume of broth medium without inoculum was added to column 12 in row A to H. The cultures were incubated at 37° C. for 48 hours in a humidified 5% CO2 atmosphere (incubator with open air valve and continuous ventilation). At the end of incubation, two days after inoculation, the bacterial growth was quantitated fluorometrically. Therefore Alamar Blue (10×) was added to all wells in a volume of 20 μl and plates were incubated for another 2 hours at 50° C.
The fluorescence was read in a computer-controlled fluorometer (Cytofluor, Biosearch) at an excitation wavelength of 530 nm and an emission wavelength of 590 nm (gain 30). The percentage growth inhibition achieved by the compounds was calculated according to standard methods and expressed as IC90 (μg/ml) which defines the 90% inhibitory concentration for bacterial growth.

[2] = tested on: Staphylococcus aureus (ATCC29213); assay: Microtitre plate IC90 determination against non-mycobacterial strains: S. aureus; format: cell-based; settings: 90% inhibitory concentration for bacterial growth, 37° C., resazurin fluorescence; for IC90: Staphylococcus aureus, ATCC29213, 24 h, read-out: IC90 STA 1 B29213; for IC90 STA 1 B29213: 24 hours
Method: as §1

Row | SMILES | IC90 SPN 1 6305 [1] [µg/mL] | IC90 (M. smegmatis ATCC607) [µg/mL] | IC90 [2] [µg/mL] | IC90 STA 1 B29213 [2] [µg/mL] | IC90 MSM 1 ATCC607 (M. smegmatis ATCC607) [µg/mL] | IC90 [1] [µg/mL]
1 | COc1nc2ccc(Br)cc2cc1C(c1ccccc1)C(O)(CCCCCN1CCCN(C)CC1)c1ccc2ccccc2c1 (single isomer, unassigned) [Compound 54] | 2.1 (≈ 3.15 µM) | 2.1 (≈ 3.15 µM) | 2.1 (≈ 3.15 µM) | – | – | –
2 | COc1nc2ccc(Br)cc2cc1C(c1ccccc1)C(O)(CCCCN1CC2CC1CN2Cc1ccccc1)c1ccc2ccccc2c1 (stereo not drawn) [Compound 22] | 2.9 (≈ 3.99 µM) | 0.6 (≈ 0.826 µM) | – | 9.2 (≈ 12.7 µM) | – | –
3 | COc1nc2ccc(Br)cc2cc1C(c1ccccc1)C(O)(CCCCN1CCCN(C)CC1)c1ccc2ccccc2c1 (stereo not drawn) [Compound 34b] | 2.1 (≈ 3.22 µM) | – | 2.1 (≈ 3.22 µM) | – | 2.1 (≈ 3.22 µM) | –
4 | COc1nc2ccc(Br)cc2cc1C(c1ccccc1)C(O)(CCCCN1CC2CC1CN2Cc1ccccc1)CCc1ccccc1 (single isomer, unassigned) [Compound 12] | – | – | – | 11.2 (≈ 15.9 µM) | 2.2 (≈ 3.12 µM) | 2.2 (≈ 3.12 µM)
5 | COc1nc2ccc(Br)cc2cc1C(c1ccccc1)C(O)(CCCCNC1CC2CCC1C2)c1ccccc1 (stereo not drawn) [Compound 60] | – | 1.9 (≈ 3.17 µM) | 1.9 (≈ 3.17 µM) | – | – | –
6 | COc1nc2ccc(Br)cc2cc1C(c1ccccc1)C(O)(CCCCNC1CC2CCC1C2)c1ccc2ccccc2c1 (stereo not drawn) [Compound 40] | 0.5 (≈ 0.77 µM) | – | – | 1.6 (≈ 2.46 µM) | 0.4 (≈ 0.616 µM) | –
7 | COc1nc2ccc(Br)cc2cc1C(c1ccccc1)C(O)(CCCCN1CCC1)c1ccccc1 (single isomer, unassigned) [Compound 41] | 1.7 (≈ 3.12 µM) | 1.7 (≈ 3.12 µM) | – | 1.7 (≈ 3.12 µM) | – | –
8 | COc1nc2ccc(Br)cc2cc1C(c1ccccc1)C(O)(CCCCN(C)C1CCN(C)CC1)c1ccccc1 (single isomer, unassigned) [Compound 4] | – | 2 (≈ 3.24 µM) | 9.8 (≈ 15.9 µM) | – | – | 2 (≈ 3.24 µM)
9 | CN1CCCN(CCCCC(O)(c2ccc3ccccc3c2)C(c2ccccc2)c2cc3cc(Br)ccc3[nH]c2=O)CC1 (single isomer, unassigned) [Compound 45] | – | 2 (≈ 3.13 µM) | – | 2.3 (≈ 3.6 µM) | – | –
10 | COc1nc2ccc(Br)cc2cc1C(c1ccccc1)C(O)(CCCCN1CC2CC1CN2CCN(C)C)c1ccc2ccccc2c1 (single isomer, unassigned) [Compound 61] | – | 2.2 (≈ 3.11 µM) | 2.2 (≈ 3.11 µM) | – | – | –
11 | COc1nc2ccc(Br)cc2cc1C(c1ccccc1)C(O)(CCCCCN1CCCN(C)CC1)c1ccc2ccccc2c1 (single isomer, unassigned) [Compound 55] | 0.4 (≈ 0.6 µM) | – | – | 2.1 (≈ 3.15 µM) | 2.1 (≈ 3.15 µM) | –
12 | COc1nc2ccc(Br)cc2cc1C(c1ccc(Cl)cc1)C(O)(CCCCN1CC2CC1CN2Cc1ccccc1)c1ccc2ccccc2c1 (single isomer, unassigned) [Compound 36] | – | 2.7 (≈ 3.55 µM) | – | 53.9 (≈ 70.8 µM) | – | 0.9 (≈ 1.18 µM)
13 | COc1nc2ccc(Br)cc2cc1C(c1ccccc1)C(O)(CCCCN1CC2CC1CN2Cc1ccccc1)c1ccccc1 (single isomer, unassigned) [Compound 49] | 0.3 (≈ 0.443 µM) | – | – | 2.1 (≈ 3.1 µM) | 2.1 (≈ 3.1 µM) | –
14 | COc1nc2ccc(Br)cc2cc1C(c1ccccc1)C(O)(CCCCN1CCN(C2CCN(Cc3ccccc3)C2)CC1)c1ccc2ccccc2c1 (single isomer, unassigned) [Compound 31] | 15.6 (≈ 19.9 µM) | – | – | 12.4 (≈ 15.8 µM) | 4.4 (≈ 5.61 µM) | –
15 | COc1nc2ccc(Br)cc2cc1C(c1ccccc1)C(O)(CCCCN1CCN(C(C)=O)CC1)c1ccccc1 (single isomer, unassigned) [Compound 3] | – | 4.9 (≈ 7.95 µM) | 61.7 (≈ 100 µM) | – | – | 9.8 (≈ 15.9 µM)
16 | COc1nc2ccc(Br)cc2cc1C(c1ccccc1)C(O)(CCCCN(C)CCc1ccccn1)c1ccccc1 (stereo not drawn) [Compound 8] | 2.2 (≈ 3.52 µM) | – | – | 2.0 (≈ 3.2 µM) | 2.0 (≈ 3.2 µM) | –

Row | SMILES | IC90 SPN 1 6305 [1] [µg/mL] | IC90 (M. smegmatis ATCC607) [µg/mL] | IC90 [2] [µg/mL] | IC90 STA 1 B29213 [2] [µg/mL] | IC90 MSM 1 ATCC607 (M. smegmatis ATCC607) [µg/mL] | IC90 [1] [µg/mL]
17 | COc1nc2ccc(Br)cc2cc1C(c1ccccc1)C(O)(CCCCNCCN(C)C)c1ccccc1 (single isomer, unassigned) [Compound 65] | – | 1.8 (≈ 3.12 µM) | 1.8 (≈ 3.12 µM) | – | – | –
18 | COc1nc2ccc(Br)cc2cc1C(c1ccccc1)C(O)(CCCCN1CC2CC1CN2CC(C)C)c1ccc2ccccc2c1 (single isomer, unassigned) [Compound 53] | – | 1.6 (≈ 2.31 µM) | 2.2 (≈ 3.18 µM) | – | – | 0.1 (≈ 0.144 µM)
19 | COc1nc2ccc(Br)cc2cc1C(c1ccccc1)C(O)(CCCCN(C)CCc1ccccn1)c1ccccc1 (stereo not drawn) [Compound 6] | – | 2 (≈ 3.2 µM) | 2 (≈ 3.2 µM) | – | – | 2.2 (≈ 3.52 µM)
20 | COc1nc2ccc(Br)cc2cc1C(c1ccccc1)C(O)(CCCCN1CC2CC1CN2Cc1ccccc1)c1ccccc1 (single isomer, unassigned) [Compound 48] | – | 2.4 (≈ 3.55 µM) | 2.1 (≈ 3.1 µM) | – | – | 0.5 (≈ 0.739 µM)
21 | COc1nc2ccc(Br)cc2cc1C(c1ccccc1)C(O)(CCCCN1CCN(C2CCN(Cc3ccccc3)C2)CC1)c1ccc2ccccc2c1 (single isomer, unassigned) [Compound 30b] | 31 (≈ 39.5 µM) | – | – | 62 (≈ 79.1 µM) | 31 (≈ 39.5 µM) | –
22 | COc1nc2ccc(Br)cc2cc1C(c1ccccc1)C(O)(CCCCN1CCC(N2CCCCC2)CC1)CCc1ccccc1 (single isomer, unassigned) [Compound 10] | 2.2 (≈ 3.21 µM) | – | – | 2.2 (≈ 3.21 µM) | 2.4 (≈ 3.5 µM) | –
23 | COc1nc2ccc(Br)cc2cc1C(c1ccccc1)C(O)(CCCCNC1CC2CCC1C2)c1ccc2ccccc2c1 (stereo not drawn) [Compound 39] | – | – | 1.8 (≈ 2.77 µM) | – | 1.8 (≈ 2.77 µM) | 0.4 (≈ 0.616 µM)
24 | COc1nc2ccc(Br)cc2cc1C(c1ccccc1)C(O)(CCCCNCCN(C)C)c1ccccc1 (single isomer, unassigned) [Compound 66] | – | – | – | 1.8 (≈ 3.12 µM) | – | –
25 | COc1nc2ccc(Br)cc2cc1C(c1ccccc1)C(O)(CCCCN1CC2CC1CN2CCN(C)C)c1ccc2ccccc2c1 (single isomer, unassigned) [Compound 62] | – | – | – | 2.2 (≈ 3.11 µM) | – | –
26 | COc1nc2ccc(Br)cc2cc1C(c1ccccc1)C(O)(CCCCN1CC2CC1CN2C)c1ccc2ccccc2c1 (single isomer, unassigned) [Compound 56] | – | 2.1 (≈ 3.23 µM) | 2.3 (≈ 3.53 µM) | – | – | –
27 | COc1nc2ccc(Br)cc2cc1C(c1ccccc1)C(O)(CCCCN1CC2CC1CN2C1CCN(C)CC1)c1ccc2ccccc2c1 (single isomer, unassigned) [Compound 63] | – | 2.3 (≈ 3.13 µM) | 2.3 (≈ 3.13 µM) | – | – | –
28 | COc1ccc(N2CCN(CCCCC(O)(c3ccc4ccccc4c3)C(c3ccccc3)c3cc4cc(Br)ccc4nc3OC)CC2)cc1 (single isomer, unassigned) [Compound 27] | – | – | – | 18.4 (≈ 25.2 µM) | – | –
29 | COc1nc2ccc(Br)cc2cc1C(c1ccccc1)C(O)(CCCCN1CC2CC1CN2C)c1ccc2ccccc2c1 (single isomer, unassigned) [Compound 57] | – | – | – | 2.3 (≈ 3.53 µM) | 2.1 (≈ 3.23 µM) | –
30 | COc1nc2ccc(Br)cc2cc1C(c1ccccc1)C(O)(CCCCN1CC2CC1CN2C1CCN(C)CC1)c1ccc2ccccc2c1 (single isomer, unassigned) [Compound 64] | – | – | – | 2.3 (≈ 3.13 µM) | 1.3 (≈ 1.77 µM) | –
31 | COc1nc2ccc(Br)cc2cc1C(c1ccccc1)C(O)(CCCCN1CCCN(C)CC1)c1ccc2ccccc2c1 (single isomer, unassigned) [Compound 34] | – | 2.1 (≈ 3.22 µM) | 2.1 (≈ 3.22 µM) | – | – | –

From patent US20100063026A1, “ANTIBACTERIAL QUINOLINE DERIVATIVES” (priority 2007, published 2010)
